# Reference: US6096743A, “1,2,3,4-tetrahydroquinoxalinedione derivative” (Yamanouchi Pharmaceuticals Co., Ltd., priority 1994, dated 2000)
# Like-named read-outs stand apart in the source and are kept apart here.
# Legend:
# AMPA receptor = test: inhibitory activity against the binding of [3H]-AMPA (rat cerebral membrane); conditions: about 45 nM [3H]-AMPA, 45 minutes on ice water, non-specific: 10 μM quisqualic acid, read-out: Ki value, inhibition of [3H]-AMPA binding
# Experimental: Inhibitory activity against the binding with [^3 H]-AMPA, kainic acid neurotoxicity and audiogenic seizure were confirmed as follows:
# 1) Measurement of inhibitory activity against the binding of [^3 H]-AMPA:
# On ice water, 0.5 ml in total of a reaction liquid containing about 45 nM [^3 H]-AMPA [2-amino-3-(3-hydroxy-5-methyl-4-isoxazolyl)propionic acid], about […] of a sample of a rat cerebral membrane and a test compound was reacted for 45 minutes. The amount of [^3 H]-AMPA bound to the AMPA receptor was measured by the filtration method. A portion substituted by 10 μM quisqualic acid in the total bound amount was taken as the specific binding amount. Evaluation of the test compound was carried out by determining the binding inhibition ratio against the specific binding.
# [1] = test system: hippocampal neuron (kainic acid neurotoxicity); test: inhibitory activity against kainic acid neurotoxicity in primary culture of hippocampal neurons (LDH release); type: cell-based; conditions: 300 μM kainic acid, 24 hours, fetal rat hippocampal neuron, read-out: IC50, inhibition of neuronal death caused by kainic acid
# Experimental: 2) Measurement of inhibitory activity against kainic acid neurotoxicity:
# Inhibitory action of the invention compound against kainic acid neurotoxicity was investigated using the primary culture system of the hippocampal neuron of a fetal rat.
# (1) Incubation conditions
# The hippocamp was cut out from a brain of the 18 to 20-day-old fetal rat and was subjected to enzyme treatment with papain and DNase I to disperse the cells. The cells so obtained were floated on MEM containing 10% serum and then were inoculated on a 48-well plate treated in advance with poly-I-lysine in a concentration of 4×10^5 cell/cm^2. Twenty four hours later, the serum was replaced by a serum-free medium. The medium replacement was carried out twice a week. The cells which were cultivated for at least 6 days were provided for the following test.
# (2) Inhibition against kainic acid neurotoxicity
# Neurotoxicity was expressed by an activity of lactate dehydrogenase released in the culture medium by the cell death. As a control, neurons which were exposed to a serum-free medium containing 300 μM kainic acid for 24 hours were used. Each compound, together with 300 μM kainic acid, was allowed to act on the neuron for 24 hours and inhibitory action of each compound against neuronal death caused by kainic acid was evaluated.
# [2] = test system: DBA/2 mouse (audiogenic seizure); test: audiogenic seizure inhibitory action in DBA/2 mouse; type: in vivo; conditions: ip, 0.25 h, intraperitoneal, 15 minutes before stimulation by sound of 12 kHz and 120 dB, male 21 to 28-day-old mice, read-out: minimum effective dose (MED), suppression of audiogenic seizure
# Experimental: 3) Measurement of audiogenic seizure inhibitory action in DBA/2 mouse
# Ten male 21 to 28-day-old mice were exposed to auditory and stimulation by the sound of 12 kHz and 120 dB in a sound proof box for one minute or until these mice cause tonic seizure. The test compound was suspended in a 0.5% methylcellulose solution or dissolved in physiological saline and the resulting suspension or solution was intraperitoneally administered 15 minutes before the stimulation by the sound. The drug efficacy was evaluated by presence or absence of the appearance of seizure and the minimum effective dose (MED) was determined.
# [3] = solubility in phosphate buffers of pH 5, 6, 7 and 8; type: physicochemical; conditions: aqueous buffer
# Experimental: 4) Measurement of solubility
# To a 0.1M aqueous solution of potassium dihydrogenphosphate, a 0.1M aqueous solution of […] was added, whereby buffers having pH of 5, 6, 7 and 8 were prepared, respectively.
# Measurement of Solubility:
# About 5 mg portions of the invention compound were weighed precisely in four glass test tubes and 0.1 ml phosphate buffers having pH 5, 6, 7 and 8 were added, respectively, followed by thorough shaking. The value obtained in accordance with the following equation was taken as the solubility. [formula]
# [4] = test system: experimental animal models suffering from neuropathy, epilepsy or cerebral ischemia; conditions: in vivo; cited from earlier work
# [5] = test system: experimental animal models suffering from cerebral ischemia; conditions: in vivo; cited from earlier work
# AMPA/kainate receptor = conditions: cited from earlier work
# neuronal culture system = conditions: substance alone; cited from earlier work
# [6] = phosphate buffer pH 6, read-out: solubility, pH 6
smiles,measurement,setting,value
"O=C(O)Cn1c(=O)c(=O)[nH]c2cc(C(F)(F)F)c(-n3ccnc3)cc21 [Example 9, 2-[2,3-dioxo-7-(1H-imidazole-1-yl)-6-trifluoromethyl-1,2,3,4-tetrahydroquinoxalin-1-yl]acetic acid]",Ki,AMPA receptor,0.093 µM
same,IC50,[1],0.96 µM
same,minimal effective dose,[2],10 mg/kg
same,solubility,[3]; [6],4.1 mg/mL
"O=C(O)Cn1c(=O)c(=O)[nH]c2cc([N+](=O)[O-])c(-n3ccnc3)cc21 [Example 1, 2-[2,3-dioxo-7-(1H-imidazol-1-yl)-6-nitro-1,2,3,4-tetrahydroquinoxalin-1-yl]acetic acid]",Ki,AMPA receptor,0.73 µM
same,IC50,[1],0.8 µM
same,minimal effective dose,[2],3 mg/kg
same,solubility,"[3]; phosphate buffer pH 5, read-out: solubility, pH 5",2.49 mg/mL
same,solubility,[3]; [6],2.62 mg/mL
same,solubility,"[3]; phosphate buffer pH 7, read-out: solubility, pH 7",3.64 mg/mL
same,solubility,"[3]; phosphate buffer pH 8, read-out: solubility, pH 8",5.13 mg/mL
"O=C(O)Cn1c(=O)c(=O)[nH]c2cc(OCc3ccccc3)c(-n3ccnc3)cc21 [Example 19, 2-[6-benzyloxy-2,3-dioxo-7-(1H-imidazol-1-yl)-1,2,3,4-tetrahydroquinoxalin-1-yl]acetic acid]",Ki,AMPA receptor,0.07 µM
same,IC50,[1],0.48 µM
same,minimal effective dose,[2],1 mg/kg
NC(CCCP(=O)(O)O)C(=O)O (stereo not shown) [2-amino-5-phosphonovalerianic acid],"effect in experimental animal models of neuropathy, epilepsy or cerebral ischemia (in words)",[4],effective
NC1CCN(O)C1=O (stereo not shown) [HA-966],effect in experimental animal models of cerebral ischemia (in words),[5],effective
C=C(C)[C@H]1CN[C@H](C(=O)O)[C@H]1CC(=O)O [kainic acid],affinity with the AMPA/kainate receptor (in words),AMPA/kainate receptor,low affinity
same,neuronal cell death in neuronal culture (in words),neuronal culture system,causes marked neuronal cell death
NC(CCCCCP(=O)(O)O)C(=O)O (stereo not shown) [2-amino-7-phosphonoheptanic acid],"effect in experimental animal models of neuropathy, epilepsy or cerebral ischemia (in words)",[4],effective
NS(=O)(=O)c1cccc2c1c([N+](=O)[O-])cc1[nH]c(=O)c(=O)[nH]c12 [NBQX],effect in experimental animal models of cerebral ischemia (in words),[5],effective
"Cc1onc(O)c1CC(N)C(=O)O (stereo not shown) [AMPA, 2-amino-3-(3-hydroxy-5-methyl-4-isoxazolyl)propionic acid]",affinity with the AMPA/kainate receptor (in words),AMPA/kainate receptor,high affinity
same,neuronal cell death in neuronal culture (in words),neuronal culture system,weak
